Reference: patent US20250019644A1, “Quantitatively Mapping Amino Acid Properties (QMAP) Cell Culture Media” (UNIVERSITY OF IOWA RESEARCH FOUNDATION, priority 2023, published 2025)

How the values were obtained:
HCT15 cells = test: Crystal Violet Cell Cytotoxicity Assay; type: cell-based; details: Homo sapiens, HCT-15; 2 mM, 48 hours, QMAP, compared to QMAP only; read-out: decrease in cell viability
Protocol: HCT15 cells were plated in 1:1 DMEM: QMAP media on a clear 96-well plate. After 18 hours, cells were treated with 200 μl of QMAP (CTRL) or QMAP plus an amino acid (2 mM). Cells were then grown for 48 hours, followed by a live/dead assay using the Crystal Violet Cell Cytotoxicity Assay Kit (BioVision, #K329) according to the manufacturer's directions. Briefly, cells were washed with 200 μl of 1× washing solution and incubated in 50 μl of crystal violet staining solution for 20 minutes. Cells were washed four times with 200 μl of 1× washing solution to remove dead cells. Cells were then incubated in 100 μl of solubilization solution for 20 minutes, and absorbance was measured at 595 nm.
An amino acid screen of all 20 essential and non-essential amino acids was performed to assess the differential effects of amino acids on cancer cell proliferation. Because commercially available cell culture media such as DMEM or RPMI contain variable concentrations of amino acids, a chemically defined, custom minimal media was designed containing all amino acids present at 0.3 mM, referred to as QMAP. HCT15 cells, a colon cancer cell line, were plated in 50:50 DMEM: QMAP and left to attach overnight. […] After 48 hours, cell proliferation was measured by crystal violet dye, which binds to ribose-like molecules such as DNA and assumes dead cells become unattached and are washed away.

293T = test: CellTiter-Glo Luminescent Cell Viability Assay; type: cell-based, human; details: 2 mM, 24 hours, DMEM
Protocol: (§1) HT29, 293T, U2OS, and 3T3-LI cells were plated on an opaque 96-well plate in 1:1 DMEM. […] At the appropriate time point, 100 μl of CellTiter-Glo reagent (Promega #G7570) was added to each well. The plate was gently mixed for 2 minutes to induce lysis, incubated at room-temperature for 10 minutes, and then luminescence was measured.
(§2) To test whether tryptophan inhibition of growth applied to other cell lines and persisted in conventional cell culture media, two human cancer cell lines (HT29, U2OS), a transformed human embryonic kidney cell line (293T), and a mouse, fibroblast-like cell line (3T3-L1) were grown in DMEM for 24 hours and then treated with 2 mM tryptophan or vehicle. After 24 hours, cells were assayed by CellTiter-Glo, which indicates cell viability by measuring ATP production.

HT29 = test: CellTiter-Glo Luminescent Cell Viability Assay; type: cell-based, human; details: 2 mM, 24 hours, DMEM
Protocol: as §1, §2

HCT116 cells = test: Metabolic profiling of tryptophan metabolite-treated cells, LC-MS; type: cell-based, human
Protocol: […] Cell plates were lyophilized overnight before metabolite extraction. To extract metabolites, 1 ml of an extraction buffer composed of 2:2:1 methanol/acetonitrile/water with internal standards at 1 μg/ml each (D4-Citric Acid, 13C5-Glutamine, 13C5-Glutamic Acid, 13C6-Lysine, 13C5-Methionine, 13C3-Serine, D4-Succinic Acid, 13C11-Tryptophan, and D8-Valine; Cambridge Isotope Laboratories) was added to the lyophilized cell samples. Cells were scraped for 20 seconds and collected into Eppendorf tubes, flash-frozen in liquid nitrogen, and sonicated for 10 minutes.
Samples were then placed on a rotating platform at −20° C. for 1 hour and centrifuged at 4° C. for 10 minutes at 21,000×g. 300 μL of the cleared metabolite extracts were transferred to fresh tubes for additional processing. An equal volume of each extract was pooled to serve as a quality control (QC) sample, which was analyzed at the beginning, end, and at a regular interval throughout an instrument run. Extraction buffer alone was analyzed as a processing blank sample. Metabolite extracts, the quality control sample, and the processing blank were evaporated to dryness using a speed-vacuum.
Dried extracts were reconstituted in 30 μL of acetonitrile/water (1:1, V/V), vortexed for 10 minutes, and incubated at −20° C. for 18 hours. Samples were then centrifuged at 4° C. for 2 minutes at 21,000×g and the supernatant was transferred to autosampler vials for analysis.
For LC chromatographic separation, 2 μL of reconstituted metabolite extracts, QC sample, and processing blank were run on a Millipore SeQuant ZIC-PHILIC (2.1×150 mm, 5 um particle size, Millipore Sigma #150460) column with a ZIC-PHILIC guard column (20×2.1 mm, Millipore Sigma #150437) attached to a Thermo Vanquish Flex UHPLC. The mobile phase comprised Buffer A [20 mM (NH4)2CO3, 0.1% NH4OH (v/v)] and Buffer B [acetonitrile]. The chromatographic gradient was run at a flow rate of 0.150 mL/min as follows: 0-20 min-linear gradient from 80 to 20% Buffer B; 20-20.5 min-linear gradient from 20 to 80% Buffer B; and 20.5-28 min-hold at 80% Buffer B. Data were acquired using a Thermo Q Exactive MS operated in full-scan, polarity-switching mode with a spray voltage set to 3.0 kV, the heated capillary held at 275° C., and the HESI probe held at 350° C. The sheath gas flow was set to 40 units, the auxiliary gas flow was set to 15 units, and the sweep gas flow was set to 1 unit. MS data acquisition was performed with polarity switching in a range of m/z 70-1,000, with the resolution set at 70,000, the AGC target at 10e6, and the maximum injection time at 200 ms. The QC sample was analyzed at the beginning and end of the LC-MS run and after every 10 samples.
Acquired LC-MS and GC-MS data were processed using the Thermo Scientific TraceFinder software. Targeted metabolites were identified by matching accurate mass and retention times to the University of Iowa Metabolomics Core Facility's in-house library of confirmed standards. After peak area integration by TraceFinder, NOREVA software was applied for signal drift correction on a metabolite-to-metabolite basis using the pooled QC sample that had been analyzed throughout the instrument run. Within individual samples, Post-NOREVA metabolite levels were divided by the total metabolite load (sum of all metabolite values) to equally weight individual metabolites for comparison across samples.

In the case of `N[C@@H](Cc1c[nH]c2ccccc12)C(=O)O` [tryptophan, L-tryptophan], the cytotoxicity at 2000 µM (HCT15 cells) is reported as ~50%, the “cell viability compared to vehicle” value (293T) is reported as “significant decreases” and the “cell viability compared to vehicle” value (HT29) is reported as “significant decreases”. The xanthommatin level (HCT116 cells; IFN-γ (50 ng/μL) for 24 hours, then tryptophan 1 mM for 6 hours, QMAP) was “only tryptophan metabolite to significantly increase” and the 3HK level (HCT116 cells; tryptophan supplementation) was “not detectable”.
